For orientation: Kd means the concentration at which binding is half-saturated.

Like-named read-outs stand apart in the source and are kept apart here.

These results are taken from article PMC2000878, “Module structure of interphotoreceptor retinoid-binding protein (IRBP) may provide bases for its complex role in the visual cycle – structure/function study of Xenopus IRBP” (BMC Biochemistry, 2007).

Assay [1] addresses T1, Xenopus IRBP Module 2 (Xenopus laevis, UniProt Q7SZI7).
T1 construct: cDNAs corresponding to the full-length IRBP, module 1, and module 2 were expressed in pThioHis; modules 3 and 4 were expressed in pTrxFus; made in house; host or cells: E. coli Top10 (pThioHis)
T1 sequence (Q7SZI7 319-617 limits assumed): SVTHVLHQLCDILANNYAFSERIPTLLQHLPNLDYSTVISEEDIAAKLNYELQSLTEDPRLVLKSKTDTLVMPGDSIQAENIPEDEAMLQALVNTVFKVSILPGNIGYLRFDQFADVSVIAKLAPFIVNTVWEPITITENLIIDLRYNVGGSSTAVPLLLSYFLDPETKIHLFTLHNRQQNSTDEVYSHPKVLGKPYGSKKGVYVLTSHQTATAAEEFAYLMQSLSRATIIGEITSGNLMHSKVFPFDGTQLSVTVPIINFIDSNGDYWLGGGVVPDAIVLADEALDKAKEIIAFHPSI
In words: Competitive fluorescence titration of all-trans retinol with 11-cis retinaldehyde. It is filed as binding. The protocol: (§1) Figure 9 Competitive inhibition by 11-cis retinaldehyde of all-trans retinol binding to the individual modules of Xenopus IRBP. Binding of all-trans retinol to the individual modules was measured by fluorescence enhancement in the presence of varying amounts of 11-cis retinal. Panels A through D correspond to modules 1 through 4 respectively. […] Three dimensional nonlinear regression was used to determine the number of binding sites, the dissociation constant of all-trans retinol, and the dissociation constant of 11-cis retinal for each of the individual modules. The concentrations of the proteins used in the titrations were as follows: module 1 (0.99 μM; panel A); module 2 (1.10 μM; panel B); module 3 (1.10 μM; panel C); module 4 (1.00 μM; panel D).
(§2) To describe the displacement of all-trans retinol by 11-cis retinaldehyde, Equation 1 was modified to take into account the competition between the two ligands. The apparent dissociation constants for all-trans retinol measured under these conditions is related to the dissociation constant of 11-cis retinaldehyde through the following expression.
(§3) Kapp=Kdall−trans[1+Rt11−cis/Kd11−cis] MathType@MTEF@5@5@+=feaafiart1ev1aaatCvAUfKttLearuWrP9MDH5MBPbIqV92AaeXatLxBI9gBaebbnrfifHhDYfgasaacH8akY=wiFfYdH8Gipec8Eeeu0xXdbba9frFj0=OqFfea0dXdd9vqai=hGuQ8kuc9pgc9s8qqaq=dirpe0xb9q8qiLsFr0=vr0=vr0dc8meaabaqaciaacaGaaeqabaqabeGadaaakeaacqWGlbWsdaWgaaWcbaGaemyyaeMaemiCaaNaemiCaahabeaakiabg2da9iabdUealnaaDaaaleaacqWGKbazaeaacqWGHbqycqWGSbaBcqWGSbaBcqGHsislcqWG0baDcqWGYbGCcqWGHbqycqWGUbGBcqWGZbWCaaGcdaWadaqaaiabigdaXiabgUcaRmaalaaabaGaemOuai1aa0baaSqaaiabdsha0bqaaiabigdaXiabigdaXiabgkHiTiabdogaJjabdMgaPjabdohaZbaaaOqaaiabdUealnaaDaaaleaacqWGKbazaeaacqaIXaqmcqaIXaqmcqGHsislcqWGJbWycqWGPbqAcqWGZbWCaaaaaaGccaGLBbGaayzxaaaaaa@58DE@
(§4) The origin of the above expression is discussed in reviews dealing with competition assays. Substitution of equation 2 into equation 1 yields the following expression.
(§5) Fenh=C1+C2[Rtall−trans−(Rtall−trans+NPt+Kdall−trans+Kdall−transRt11−cis/Kd11−cis)^2−4NPtRtall−trans] MathType@MTEF@5@5@+=feaafiart1ev1aaatCvAUfKttLearuWrP9MDH5MBPbIqV92AaeXatLxBI9gBaebbnrfifHhDYfgasaacH8akY=wiFfYdH8Gipec8Eeeu0xXdbba9frFj0=OqFfea0dXdd9vqai=hGuQ8kuc9pgc9s8qqaq=dirpe0xb9q8qiLsFr0=vr0=vr0dc8meaabaqaciaacaGaaeqabaqabeGadaaakeaacqWGgbGrdaWgaaWcbaGaemyzauMaemOBa4MaemiAaGgabeaakiabg2da9iabdoeadnaaBaaaleaacqaIXaqmaeqaaOGaey4kaSIaem4qam0aaSbaaSqaaiabikdaYaqabaGcdaWadaqaaiabdkfasnaaDaaaleaacqWG0baDaeaacqWGHbqycqWGSbaBcqWGSbaBcqGHsislcqWG0baDcqWGYbGCcqWGHbqycqWGUbGBcqWGZbWCaaGccqGHsisldaGcaaqaamaabmaabaGaemOuai1aa0baaSqaaiabdsha0bqaaiabdggaHjabdYgaSjabdYgaSjabgkHiTiabdsha0jabdkhaYjabdggaHjabd6gaUjabdohaZbaakiabgUcaRiabd6eaojabdcfaqnaaBaaaleaacqWG0baDaeqaaOGaey4kaSIaem4saS0aa0baaSqaaiabdsgaKbqaaiabdggaHjabdYgaSjabdYgaSjabgkHiTiabdsha0jabdkhaYjabdggaHjabd6gaUjabdohaZbaakiabgUcaRmaalaaabaGaem4saS0aa0baaSqaaiabdsgaKbqaaiabdggaHjabdYgaSjabdYgaSjabgkHiTiabdsha0jabdkhaYjabdggaHjabd6gaUjabdohaZbaakiabdkfasnaaDaaaleaacqWG0baDaeaacqaIXaqmcqaIXaqmcqGHsislcqWGJbWycqWGPbqAcqWGZbWCaaaakeaacqWGlbWsdaqhaaWcbaGaemizaqgabaGaeGymaeJaeGymaeJaeyOeI0Iaem4yamMaemyAaKMaem4CamhaaaaaaOGaayjkaiaawMcaamaaCaaaleqabaGaeGOmaidaaOGaeyOeI0IaeGinaqJaemOta4Kaemiuaa1aaSbaaSqaaiabdsha0bqabaGccqWGsbGudaqhaaWcbaGaemiDaqhabaGaemyyaeMaemiBaWMaemiBaWMaeyOeI0IaemiDaqNaemOCaiNaemyyaeMaemOBa4Maem4CamhaaaqabaaakiaawUfacaGLDbaaaaa@A768@

The target in another assay is T2, Xenopus IRBP Module 3 (Xenopus laevis, UniProt Q7SZI7).
T2 construct: cDNAs corresponding to the full-length IRBP, module 1, and module 2 were expressed in pThioHis; modules 3 and 4 were expressed in pTrxFus; made in house; host or cells: E. coli GI724 / GI698 (pTrxFus)
The description is as above. It is filed as binding. The settings on record: protein 1.10 μM. The protocol: as §1, §2, §3, §4, §5

For a further assay, the target named is Xenopus IRBP Module 1 (Xenopus laevis, UniProt Q7SZI7). Described as above. Type of assay: binding. The settings on record: protein 0.99 μM. The protocol:
as §1, §2, §3, §4, §5

In assay [2] the target is T1, Xenopus IRBP Module 2. Also on record: method as in Loew et al. Exp Eye Res. 2001, 73:257–264. Conditions: ref Loew et al. Exp Eye Res. 2001, 73:257–264, cited from earlier work.
The target of a further assay is T3, full-length Xenopus IRBP (Xenopus laevis, UniProt Q7SZI7).
T3 construct: We expressed the full-length IRBP as well as its individual modules as thioredoxin-fusion proteins using pTrxFus and pThioHis vectors; made in house; host or cells: E. coli Top10 (pThioHis)
In words: Competitive fluorescence titration of all-trans retinol with 11-cis retinaldehyde. Type of assay: binding.
Description: In Figure 8B, full-length Xenopus IRBP was titrated with all-trans retinol in the presence of different fixed concentrations of 11-cis retinaldehyde. Binding of all-trans retinol to Xenopus IRBP was followed by monitoring the enhancement of its fluorescence. […] Equation 3 (see methods) was used to analyze the data generating the 3-dimensional representation of the fit shown graphically in Figure 8B.
as §2, §3, §4
Fenh=C1+C2[Rtall−trans−(Rtall−trans+NPt+Kdall−trans+Kdall−transRt11−cis/Kd11−cis)^2−4NPtRtall−trans] […]

The mark [3] stands for this setting: competition, in presence of 11-cis retinal, read-out: Kd All-trans retinol.
[4] abbreviates: competition with all-trans retinol, read-out: Kd 11-cis retinal.

T2 sequence (Q7SZI7 616-912): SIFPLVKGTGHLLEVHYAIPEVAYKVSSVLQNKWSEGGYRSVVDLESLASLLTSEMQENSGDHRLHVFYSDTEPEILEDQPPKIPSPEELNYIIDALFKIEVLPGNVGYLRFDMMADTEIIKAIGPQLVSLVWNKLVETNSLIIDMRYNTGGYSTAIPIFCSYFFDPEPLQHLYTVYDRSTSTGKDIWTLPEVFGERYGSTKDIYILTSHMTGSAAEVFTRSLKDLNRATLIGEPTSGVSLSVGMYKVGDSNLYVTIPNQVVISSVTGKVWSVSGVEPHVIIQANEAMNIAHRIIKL
Sequence of Xenopus IRBP Module 1 (Q7SZI7 23-318): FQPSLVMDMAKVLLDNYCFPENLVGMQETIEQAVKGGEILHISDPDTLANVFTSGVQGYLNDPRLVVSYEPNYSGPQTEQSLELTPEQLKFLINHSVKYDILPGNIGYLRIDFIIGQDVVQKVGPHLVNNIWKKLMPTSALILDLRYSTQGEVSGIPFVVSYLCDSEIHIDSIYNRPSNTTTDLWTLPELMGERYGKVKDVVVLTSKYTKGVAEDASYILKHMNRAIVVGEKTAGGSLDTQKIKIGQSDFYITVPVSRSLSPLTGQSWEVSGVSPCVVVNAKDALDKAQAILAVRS
T3 sequence (Q7SZI7 23-1219): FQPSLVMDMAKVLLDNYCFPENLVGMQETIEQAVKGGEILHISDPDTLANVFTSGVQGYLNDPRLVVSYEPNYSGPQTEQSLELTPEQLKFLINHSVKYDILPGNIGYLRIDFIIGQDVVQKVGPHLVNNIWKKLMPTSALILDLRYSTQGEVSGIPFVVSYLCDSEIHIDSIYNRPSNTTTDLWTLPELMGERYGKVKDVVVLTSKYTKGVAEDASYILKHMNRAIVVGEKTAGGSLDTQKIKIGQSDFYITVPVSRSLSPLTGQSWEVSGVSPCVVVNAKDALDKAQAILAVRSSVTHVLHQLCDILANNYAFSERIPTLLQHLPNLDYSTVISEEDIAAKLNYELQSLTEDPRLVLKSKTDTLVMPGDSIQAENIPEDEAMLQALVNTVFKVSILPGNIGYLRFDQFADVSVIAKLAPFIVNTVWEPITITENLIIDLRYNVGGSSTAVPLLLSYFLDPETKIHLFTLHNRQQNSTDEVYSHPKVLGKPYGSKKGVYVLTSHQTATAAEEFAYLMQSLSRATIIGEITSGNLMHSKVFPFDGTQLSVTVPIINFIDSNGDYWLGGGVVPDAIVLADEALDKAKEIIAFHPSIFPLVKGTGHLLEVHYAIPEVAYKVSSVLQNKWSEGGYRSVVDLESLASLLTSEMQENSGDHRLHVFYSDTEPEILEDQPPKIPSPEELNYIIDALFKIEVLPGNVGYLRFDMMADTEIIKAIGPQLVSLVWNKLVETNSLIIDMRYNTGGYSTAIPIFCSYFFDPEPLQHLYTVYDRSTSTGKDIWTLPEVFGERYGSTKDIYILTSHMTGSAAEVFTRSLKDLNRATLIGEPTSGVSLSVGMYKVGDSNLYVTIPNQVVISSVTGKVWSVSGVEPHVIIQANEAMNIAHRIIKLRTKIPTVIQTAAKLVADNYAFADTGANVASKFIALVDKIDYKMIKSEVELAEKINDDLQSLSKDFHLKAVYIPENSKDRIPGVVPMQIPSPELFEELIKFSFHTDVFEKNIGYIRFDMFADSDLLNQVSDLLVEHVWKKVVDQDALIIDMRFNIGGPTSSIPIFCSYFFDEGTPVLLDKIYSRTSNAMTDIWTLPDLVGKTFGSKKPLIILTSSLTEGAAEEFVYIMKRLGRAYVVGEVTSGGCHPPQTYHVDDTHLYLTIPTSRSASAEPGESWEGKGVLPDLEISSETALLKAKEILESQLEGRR

Take `CC1=C(/C=C/C(C)=C/C=C/C(C)=C/CO)C(C)(C)CCC1` [all-trans retinol]: the “Ligand selectivity of module 2” value at Xenopus IRBP Module 2 [1] (comparison of Kd for all-trans retinol and 11-cis retinaldehyde) is recorded as “selectivity for all-trans retinol over 11-cis retinaldehyde”. For the same molecule, the Kd on Xenopus IRBP Module 2 [1] (competition, in presence of 11-cis retinal, protein 1.10 μM, read-out: Kd All-trans retinol) was 74 ± 37 nM; at Xenopus IRBP Module 3 (setting [3]) it was 840 ± 220 nM; on Xenopus IRBP Module 1 (setting [3]), 670 ± 170 nM; at Xenopus IRBP Module 2 [2] (all-trans retinol fluorescence enhancement, ex 330 nm, em 480 nm, read-out: Kd, Enhancement) it was 84 ± 22 nM; on Xenopus IRBP Module 2 [2] (quenching by all-trans retinol, ex 280 nm, em 340 nm, read-out: Kd, Quenching), 140 ± 40 nM; at full-length Xenopus IRBP (competition, in presence of fixed concentrations of 11-cis retinaldehyde, read-out: Kd All-trans retinol), 220 ± 130 nM. Further, the “Binding sites (N), Enhancement” value at Xenopus IRBP Module 2 [2] (all-trans retinol fluorescence enhancement, ex 330 nm, em 480 nm) is reported as 1.57 ± 0.04. At Xenopus IRBP Module 2 [2] (quenching by all-trans retinol, ex 280 nm, em 340 nm), the “Binding sites (N), Quenching” value is 1.31 ± 0.06.

With `CC1=C(/C=C/C(C)=C/C=C/C(C)=C/C=O)C(C)(C)CCC1` [11-cis retinal], the Kd amounted to 280 ± 130 nM on Xenopus IRBP Module 2 [1] (competition with all-trans retinol, protein 1.10 μM, read-out: Kd 11-cis retinal); 560 ± 110 nM on Xenopus IRBP Module 3 (setting [4]); 570 ± 110 nM on Xenopus IRBP Module 1 (setting [4]); 210 ± 100 nM at full-length Xenopus IRBP (setting [4]). Besides, the “Binding sites (N)” value is recorded as 1.22 ± 0.10 on Xenopus IRBP Module 2 [1] (competition, shared sites, protein 1.10 μM); 1.90 ± 0.28 on Xenopus IRBP Module 3 (competition, shared sites); 1.29 ± 0.24 at Xenopus IRBP Module 1 (competition, shared sites); 3.53 ± 0.19 at full-length Xenopus IRBP (competition, sites assumed shared by all-trans retinol and 11-cis retinal).
